Measurements published in US12077503B2, “Substituted cyclic amides and their use as herbicides” (FMC CORPORATION, priority 2015, dated 2024).

Columns and labels:
Assay type in all cases: in vivo
[1] = system: giant foxtail (Setaria faberi); assay: Test G Post-Emergence Protocol; details: Setaria faberi, post-emergence, 312 h, read-out: Foxtail, Giant damage rating; for pest or weed control at 15.625 g/ha: 15.625 g ai/ha, evaluated after 13 days (100=total damage to plant; 0=no damage to plant); for pest or weed control at 62.5 g/ha: 62.5 g ai/ha
How it was run: (§1)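 Seedlings grown 8 days in soil in a glasshouse (24/16 °C day/night, 14 h light, 65% humidity) were sprayed post-emergence with compound in acetone/water 50:50 plus 0.5% Tween 20 at 15.625, 62.5 or 250 g/ha. Damage was scored after 13 days on a 0–100 scale (100 = total damage).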

[2] = system: velvetleaf (Abutilon theophrasti); assay: Test G Post-Emergence Protocol; details: Abutilon theophrasti, post-emergence, 312 h, read-out: Velvetleaf damage rating; for pest or weed control at 15.625 g/ha: 15.625 g ai/ha, evaluated after 13 days (100=total damage to plant; 0=no damage to plant); for pest or weed control at 62.5 g/ha: 62.5 g ai/ha; for pest or weed control at 62.5 g/ha / pest or weed control at 250 g/ha: evaluated after 13 days, 100=total damage to plant, 0=no damage to plant; for pest or weed control at 250 g/ha: 250 g ai/ha
How it was run: as §1

[3] = system: redroot pigweed (Amaranthus retroflexus); assay: Test G Post-Emergence Protocol; details: Amaranthus retroflexus, post-emergence, 312 h, read-out: Pigweed, Redroot damage rating; for pest or weed control at 15.625 g/ha: 15.625 g ai/ha, evaluated after 13 days (100=total damage to plant; 0=no damage to plant); for pest or weed control at 62.5 g/ha: 62.5 g ai/ha; for pest or weed control at 62.5 g/ha / pest or weed control at 250 g/ha: evaluated after 13 days, 100=total damage to plant, 0=no damage to plant; for pest or weed control at 250 g/ha: 250 g ai/ha
How it was run: as §1

[4] = system: ivy-leaved morning glory (Ipomoea hederacea); assay: Test G Post-Emergence Protocol; details: Ipomoea, post-emergence, 312 h, read-out: Morningglory, Ivy-leaved damage rating; for pest or weed control at 15.625 g/ha: 15.625 g ai/ha, evaluated after 13 days (100=total damage to plant; 0=no damage to plant); for pest or weed control at 62.5 g/ha: 62.5 g ai/ha; for pest or weed control at 62.5 g/ha / pest or weed control at 250 g/ha: evaluated after 13 days, 100=total damage to plant, 0=no damage to plant; for pest or weed control at 250 g/ha: 250 g ai/ha
How it was run: as §1

corn (Zea mays) [5] = assay: Test G Post-Emergence Protocol; details: Zea mays, post-emergence, 312 h, read-out: Corn damage rating; for plant injury at 15.625 g/ha: 15.625 g ai/ha, evaluated after 13 days (100=total damage to plant; 0=no damage to plant); for plant injury at 62.5 g/ha: 62.5 g ai/ha; for plant injury at 62.5 g/ha / plant injury at 250 g/ha: evaluated after 13 days, 100=total damage to plant, 0=no damage to plant; for plant injury at 250 g/ha: 250 g ai/ha
How it was run: as §1

[6] = system: barnyardgrass (Echinochloa crus-galli); assay: Test G Post-Emergence Protocol; details: Echinochloa crus-galli, post-emergence, 312 h, read-out: Barnyardgrass damage rating; for pest or weed control at 15.625 g/ha: 15.625 g ai/ha, evaluated after 13 days (100=total damage to plant; 0=no damage to plant); for pest or weed control at 62.5 g/ha: 62.5 g ai/ha; for pest or weed control at 62.5 g/ha / pest or weed control at 250 g/ha: evaluated after 13 days, 100=total damage to plant, 0=no damage to plant; for pest or weed control at 250 g/ha: 250 g ai/ha
How it was run: as §1

[7] = system: giant foxtail (Setaria faberi); assay: Test G Pre-Emergence Protocol; details: Setaria faberi, pre-emergence, 312 h, evaluated after 13 days; for pest or weed control at 15.625 g/ha: 15.625 g ai/ha; for pest or weed control at 15.625 g/ha / pest or weed control at 250 g/ha: read-out: Foxtail, Giant damage rating (100=total damage to plant; 0=no damage to plant); for pest or weed control at 62.5 g/ha: 62.5 g ai/ha, 100=total damage to plant, 0=no damage to plant, read-out: Foxtail, Giant damage rating; for pest or weed control at 250 g/ha: 250 g ai/ha
How it was run: (§2)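 Visual injury (0–100) at day 13 after a single pre-emergence spray. Rates: 15.625, 62.5, 250 g/ha in acetone–water 50:50 with 0.5% Tween 20. Growth conditions: 24/16° C, 14 h light, 65% humidity.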

[8] = system: velvetleaf (Abutilon theophrasti); assay: Test G Pre-Emergence Protocol; details: Abutilon theophrasti, pre-emergence, 312 h, evaluated after 13 days; for pest or weed control at 15.625 g/ha: 15.625 g ai/ha; for pest or weed control at 15.625 g/ha / pest or weed control at 250 g/ha: read-out: Velvetleaf damage rating (100=total damage to plant; 0=no damage to plant); for pest or weed control at 62.5 g/ha: 62.5 g ai/ha, 100=total damage to plant, 0=no damage to plant, read-out: Velvetleaf damage rating; for pest or weed control at 250 g/ha: 250 g ai/ha
How it was run: as §2

[9] = system: redroot pigweed (Amaranthus retroflexus); assay: Test G Pre-Emergence Protocol; details: Amaranthus retroflexus, pre-emergence, 312 h, evaluated after 13 days; for pest or weed control at 15.625 g/ha: 15.625 g ai/ha; for pest or weed control at 15.625 g/ha / pest or weed control at 250 g/ha: read-out: Pigweed, Redroot damage rating (100=total damage to plant; 0=no damage to plant); for pest or weed control at 62.5 g/ha: 62.5 g ai/ha, 100=total damage to plant, 0=no damage to plant, read-out: Pigweed, Redroot damage rating; for pest or weed control at 250 g/ha: 250 g ai/ha
How it was run: as §2

[10] = system: ivy-leaved morning glory (Ipomoea hederacea); assay: Test G Pre-Emergence Protocol; details: Ipomoea, pre-emergence, 312 h, evaluated after 13 days; for pest or weed control at 15.625 g/ha: 15.625 g ai/ha; for pest or weed control at 15.625 g/ha / pest or weed control at 250 g/ha: read-out: Morningglory, Ivy-leaved damage rating (100=total damage to plant; 0=no damage to plant); for pest or weed control at 62.5 g/ha: 62.5 g ai/ha, 100=total damage to plant, 0=no damage to plant, read-out: Morningglory, Ivy-leaved damage rating; for pest or weed control at 250 g/ha: 250 g ai/ha
How it was run: as §2

corn (Zea mays) [11] = assay: Test G Pre-Emergence Protocol; details: Zea mays, pre-emergence, 312 h, evaluated after 13 days; for plant injury at 15.625 g/ha: 15.625 g ai/ha; for plant injury at 15.625 g/ha / plant injury at 250 g/ha: read-out: Corn damage rating (100=total damage to plant; 0=no damage to plant); for plant injury at 62.5 g/ha: 62.5 g ai/ha, 100=total damage to plant, 0=no damage to plant, read-out: Corn damage rating; for plant injury at 250 g/ha: 250 g ai/ha
How it was run: as §2

[12] = system: barnyardgrass (Echinochloa crus-galli); assay: Test G Pre-Emergence Protocol; details: Echinochloa crus-galli, pre-emergence, 312 h, evaluated after 13 days; for pest or weed control at 15.625 g/ha: 15.625 g ai/ha; for pest or weed control at 15.625 g/ha / pest or weed control at 250 g/ha: read-out: Barnyardgrass damage rating (100=total damage to plant; 0=no damage to plant); for pest or weed control at 62.5 g/ha: 62.5 g ai/ha, 100=total damage to plant, 0=no damage to plant, read-out: Barnyardgrass damage rating; for pest or weed control at 250 g/ha: 250 g ai/ha
How it was run: as §2

[13] = evaluated after 13 days, 100=total damage to plant, 0=no damage to plant

Row | SMILES | pest or weed control at 15.625 g/ha [1] | pest or weed control at 62.5 g/ha [1, 13] | pest or weed control at 15.625 g/ha [2] | pest or weed control at 62.5 g/ha [2] | pest or weed control at 250 g/ha [2] | pest or weed control at 15.625 g/ha [3] | pest or weed control at 62.5 g/ha [3] | pest or weed control at 250 g/ha [3] | pest or weed control at 15.625 g/ha [4] | pest or weed control at 62.5 g/ha [4] | pest or weed control at 250 g/ha [4] | plant injury at 15.625 g/ha (corn (Zea mays) [5]) | plant injury at 62.5 g/ha (corn (Zea mays) [5]) | plant injury at 250 g/ha (corn (Zea mays) [5]) | pest or weed control at 15.625 g/ha [6] | pest or weed control at 62.5 g/ha [6] | pest or weed control at 250 g/ha [6] | pest or weed control at 15.625 g/ha [7] | pest or weed control at 62.5 g/ha [7] | pest or weed control at 250 g/ha [7] | further results
1 | CN1C[C@H](c2ccnc(C(C)(C)C)n2)[C@@H](C(=O)Nc2ccc(F)c(F)c2F)C1=O (racemic) [Compound 1770] | 0% | 20% | 0% | 10% | 30% | 0% | 20% | 40% | 0% | 10% | 20% | 0% | 0% | 0% | 0% | 0% | 70% | 0% | 50% | 80% | pest or weed control at 250 g/ha ([1]; 250 g ai/ha, evaluated after 13 days, 100=total damage to plant, 0=no damage to plant): 70%; pest or weed control at 15.625 g/ha [8]: 0%; pest or weed control at 62.5 g/ha [8]: 0%; pest or weed control at 250 g/ha [8]: 20%; pest or weed control at 15.625 g/ha [9]: 0%; pest or weed control at 62.5 g/ha [9]: 0%; pest or weed control at 250 g/ha [9]: 10%; pest or weed control at 15.625 g/ha [10]: 0%; pest or weed control at 62.5 g/ha [10]: 0%; pest or weed control at 250 g/ha [10]: 30%; plant injury at 15.625 g/ha (corn (Zea mays) [11]): 0%; plant injury at 62.5 g/ha (corn (Zea mays) [11]): 0%; plant injury at 250 g/ha (corn (Zea mays) [11]): 0%; pest or weed control at 15.625 g/ha [12]: 0%; pest or weed control at 62.5 g/ha [12]: 20%; pest or weed control at 250 g/ha [12]: 70%
2 | CSc1ncccc1NC(=O)[C@H]1C(=O)N(C)C[C@@H]1c1ccc(C(F)(F)F)cc1 (racemic) [Compound 1786] | 0% | 10% | 0% | 0% | 30% | 0% | 0% | 20% | 0% | 0% | 0% | 0% | 0% | 0% | 0% | 0% | 0% | 0% | 0% | 80% | pest or weed control at 15.625 g/ha [8]: 0%; pest or weed control at 62.5 g/ha [8]: 0%; pest or weed control at 250 g/ha [8]: 30%; pest or weed control at 15.625 g/ha [9]: 0%; pest or weed control at 62.5 g/ha [9]: 0%; pest or weed control at 250 g/ha [9]: 40%; pest or weed control at 15.625 g/ha [10]: 0%; pest or weed control at 62.5 g/ha [10]: 0%; pest or weed control at 250 g/ha [10]: 0%; plant injury at 15.625 g/ha (corn (Zea mays) [11]): 0%; plant injury at 62.5 g/ha (corn (Zea mays) [11]): 0%; plant injury at 250 g/ha (corn (Zea mays) [11]): 0%; pest or weed control at 15.625 g/ha [12]: 0%; pest or weed control at 62.5 g/ha [12]: 0%; pest or weed control at 250 g/ha [12]: 20%
